# Structures can show the parent of a compound that is named as a salt.
# Tests used:
# tumor cell A549 = assay: Tumor cell inhibition, Cell Titer-Glo cell viability; type: cell-based; conditions: Homo sapiens, A549 cells, 72 h
# Method: The activities of example compounds to tumor cell A549 were evaluated.
# (§1) Experimental materials: DMEM high-glucose cell culture media (Hyclone Company), fetal calf serum (FBS) (Gibco Company), penicillin and streptomycin were purchased from North China Pharmaceutical Co., Ltd, phosphate buffer saline (PBS) was purchased from Gibco Company, Cell Titer-Glo® cell viability detection reagent was purchased from Promega Company, pancreatin and dimethylsulfoxide (DMSO) were products of Sigma Company. A549 cell line (human lung adenocarcinoma cell line) was purchased from ATCC.
# (§2) The cells were inoculated on a 96-well plate with white wall and penetrative bottom (Costar) in amount of 5000 cells per well, cultured at condition of 37° C., 5% CO2 for 24 h. The compounds to be tested were dissolved with DMSO and diluted to 100 mM, to obtain mother liquids of the compounds.
# (§3) DMEM culture solution containing 2% FBS was used to diluted the compounds, in which concentration gradients were 3, and concentration range was 100 μM to 3 nM. The compounds in various dilution degrees were added to the cultured cells on the 96-well plate, 100 μl per well. Culture was performed at 37° C., CO2 for 72 h, supernatant was discarded, and cell viability detection test was performed.
# (§4) AfterCell Titer-Glo® reaction buffer solution was mixed with isometric substrate, the mixture was added to 96-well plate, 100 μl per well. Cell lysis was induced by horizontally shaking for 4 min. Reaction signal was stabilized by balancing at room temperature for 15 min. Chemiluminescence units in each well of the 96-well plate were detected by using chemiluminescence detector.
# (§5) Inhibition rates at different dilution degrees of each compound were calculated according to chemiluminescence value of each well, and Origin 8.0 software was used for S-type curve fitting of each compound, and for calculating EC50 value.
# [1] = tested on: multi-drug resistant tumor cell line MES-SA; assay: Inhibition of drug-resistant tumor cell line, Cell Titer-Glo cell viability; therapeutic index against MRC5 cells; type: cell-based; conditions: Homo sapiens, 72 h
# Method: The activity of example compounds to multi-drug resistant tumor cell line MES-SA was evaluated.
# as §1, with “MES-SA” for “A549”, “uterine sarcoma” for “lung adenocarcinoma”, “ATCC. MRC5 cell (human embryonic lung fibroblast) was purchased from ATCC.” for “ATCC.”
# as §2
# as §3, with “0.046 μM.” for “3 nM.”
# as §4
# as §5, with “value. The ratio of EC50 value of compound for MRC5 cell to EC50 value of compound for MES-SA cell was used as therapeutic index for the compound.” for “value.”
# [2] = Solubility test (Chinese Pharmacopoeia 2010, Part II); type: physicochemical; conditions: water, thermodynamic from solid
SMILES,IC50 (tumor cell A549) [µM],melting point [°C],solubility [2] [mg/mL],IC50 [1] [µM]
"CO[C@H]1C[C@@H]2CC[C@@H](C)[C@@](O)(O2)C(=O)C(=O)N2CCCC[C@H]2C(=O)O[C@H]([C@H](C)C[C@@H]2CC[C@@H](O)[C@H](OC)C2)CC(=O)[C@H](C)/C=C(\C)[C@@H](OC(=O)C[n+]2csc(C)c2C)[C@@H](OC)C(=O)[C@H](C)C[C@H](C)/C=C/C=C/C=C/1C [Example 6, 31-O-carbonylmethyl-(4,5-dimethyl-thiazole bromide salt-3-yl)-rapamycin]",52.3,–,–,< 0.046
"CO[C@H]1C[C@@H]2CC[C@@H](C)[C@@](O)(O2)C(=O)C(=O)N2CCCC[C@H]2C(=O)O[C@H]([C@H](C)C[C@@H]2CC[C@@H](OC(=O)C[n+]3ccccc3)[C@H](OC)C2)CC(=O)[C@H](C)/C=C(\C)[C@@H](O)[C@@H](OC)C(=O)[C@H](C)C[C@H](C)/C=C/C=C/C=C/1C.[Br-] [Example 10, 42-O-carbonylmethyl-(pyridine bromide salt-1-yl)-rapamycin]",66.3,135 to 137,–,10.9
"CO[C@H]1C[C@@H]2CC[C@@H](C)[C@@](O)(O2)C(=O)C(=O)N2CCCC[C@H]2C(=O)O[C@H]([C@H](C)C[C@@H]2CC[C@@H](OC(=O)C[n+]3ccccc3)[C@H](OC)C2)CC(=O)[C@H](C)/C=C(\C)[C@@H](OC(=O)C[n+]2ccccc2)[C@@H](OC)C(=O)[C@H](C)C[C@H](C)/C=C/C=C/C=C/1C.[Br-].[Br-] [Example 7, 31,42-O-carbonylmethyl-(pyridine bromide salt-1-yl)-rapamycin]",46.7,140 to 142,85,< 0.046
"CO[C@H]1C[C@@H]2CC[C@@H](C)[C@@](O)(O2)C(=O)C(=O)N2CCCC[C@H]2C(=O)O[C@H]([C@H](C)C[C@@H]2CC[C@@H](O)[C@H](OC)C2)CC(=O)[C@H](C)/C=C(\C)[C@@H](OC(=O)C[n+]2cccc(C)c2)[C@@H](OC)C(=O)[C@H](C)C[C@H](C)/C=C/C=C/C=C/1C.[Br-] [Example 15, 31-O-carbonylmethyl-(3-methyl-pyridine bromide salt-1-yl)-rapamycin]",52.7,138 to 140,–,< 0.046
"CO[C@H]1C[C@@H]2CC[C@@H](C)[C@@](O)(O2)C(=O)C(=O)N2CCCC[C@H]2C(=O)O[C@H]([C@H](C)C[C@@H]2CC[C@@H](OC(=O)C[n+]3cscc3C)[C@H](OC)C2)CC(=O)[C@H](C)/C=C(\C)[C@@H](O)[C@@H](OC)C(=O)[C@H](C)C[C@H](C)/C=C/C=C/C=C/1C.[Br-] [Example 2, 42-O-carbonylmethyl-(4-methyl-thiazole bromide salt-3-yl)-rapamycin]",19.3,130 to 133,–,< 0.046

# Continued by falling IC50 (tumor cell A549), values first:
IC50 (tumor cell A549) [µM],melting point [°C],solubility [2] [mg/mL],SMILES,IC50 [1] [µM]
57.7,140 to 142,–,"CO[C@H]1C[C@@H]2CC[C@@H](C)[C@@](O)(O2)C(=O)C(=O)N2CCCC[C@H]2C(=O)O[C@H]([C@H](C)C[C@@H]2CC[C@@H](O)[C@H](OC)C2)CC(=O)[C@H](C)/C=C(\C)[C@@H](OC(=O)C[n+]2ccccc2)[C@@H](OC)C(=O)[C@H](C)C[C@H](C)/C=C/C=C/C=C/1C.[Br-] [Example 16, 31-O-carbonylmethyl-(pyridine bromide salt-1-yl)-rapamycin]",< 0.046
51.5,146 to 148,–,"CO[C@H]1C[C@@H]2CC[C@@H](C)[C@@](O)(O2)C(=O)C(=O)N2CCCC[C@H]2C(=O)O[C@H]([C@H](C)C[C@@H]2CC[C@@H](OC(=O)C[n+]3cccc(O)c3)[C@H](OC)C2)CC(=O)[C@H](C)/C=C(\C)[C@@H](O)[C@@H](OC)C(=O)[C@H](C)C[C@H](C)/C=C/C=C/C=C/1C.[Br-] [Example 12, 42-O-carbonylmethyl-(3-hydroxy-pyridine bromide salt-1-yl)-rapamycin]",< 0.046
44,181 to 183,120,"CO[C@H]1C[C@@H]2CC[C@@H](C)[C@@](O)(O2)C(=O)C(=O)N2CCCC[C@H]2C(=O)O[C@H]([C@H](C)C[C@@H]2CC[C@@H](OC(=O)C[n+]3ccc(C)cc3)[C@H](OC)C2)CC(=O)[C@H](C)/C=C(\C)[C@@H](OC(=O)C[n+]2ccc(C)cc2)[C@@H](OC)C(=O)[C@H](C)C[C@H](C)/C=C/C=C/C=C/1C.[Br-].[Br-] [Example 14, 31,42-O-carbonylmethyl-(4-methyl-pyridine bromide salt-1-yl)-rapamycin]",< 0.046
25.1,159 to 162,47,"CO[C@H]1C[C@@H]2CC[C@@H](C)[C@@](O)(O2)C(=O)C(=O)N2CCCC[C@H]2C(=O)O[C@H]([C@H](C)C[C@@H]2CC[C@@H](OC(=O)C[n+]3cccc(C)c3)[C@H](OC)C2)CC(=O)[C@H](C)/C=C(\C)[C@@H](OC(=O)C[n+]2cccc(C)c2)[C@@H](OC)C(=O)[C@H](C)C[C@H](C)/C=C/C=C/C=C/1C.[Br-].[Br-] [Example 9, 31,42-O-carbonylmethyl-(3-methyl-pyridine bromide salt-1-yl)-rapamycin]",7.21
17.4,142 to 145,34.5,"CO[C@H]1C[C@@H]2CC[C@@H](C)[C@@](O)(O2)C(=O)C(=O)N2CCCC[C@H]2C(=O)O[C@H]([C@H](C)C[C@@H]2CC[C@@H](OC(=O)C[n+]3cscc3C)[C@H](OC)C2)CC(=O)[C@H](C)/C=C(\C)[C@@H](OC(=O)C[n+]2cscc2C)[C@@H](OC)C(=O)[C@H](C)C[C@H](C)/C=C/C=C/C=C/1C.[Br-].[Br-] [Example 1, 31,42-O-carbonylmethyl-(4-methyl-thiazole bromide salt-3-yl)-rapamycin]",< 0.046
7.4,–,–,"CO[C@H]1C[C@@H]2CC[C@@H](C)[C@@](O)(O2)C(=O)C(=O)N2CCCC[C@H]2C(=O)O[C@H]([C@H](C)C[C@@H]2CC[C@@H](OC(=O)C[n+]3csc(C)c3C)[C@H](OC)C2)CC(=O)[C@H](C)/C=C(\C)[C@@H](O)[C@@H](OC)C(=O)[C@H](C)C[C@H](C)/C=C/C=C/C=C/1C [Example 5, 42-O-carbonylmethyl-(4,5-dimethyl-thiazole bromide salt-3-yl)-rapamycin]",< 0.046
6.23,–,100,"CO[C@H]1C[C@@H]2CC[C@@H](C)[C@@](O)(O2)C(=O)C(=O)N2CCCC[C@H]2C(=O)O[C@H]([C@H](C)C[C@@H]2CC[C@@H](OC(=O)C[n+]3csc(C)c3C)[C@H](OC)C2)CC(=O)[C@H](C)/C=C(\C)[C@@H](OC(=O)C[n+]2csc(C)c2C)[C@@H](OC)C(=O)[C@H](C)C[C@H](C)/C=C/C=C/C=C/1C.[Br-].[Br-] [Example 4, 31,42-O-carbonylmethyl-(4,5-dimethyl-thiazole bromide salt-3-yl)-rapamycin]",< 0.046
3.04,130 to 132,–,"CO[C@H]1C[C@@H]2CC[C@@H](C)[C@@](O)(O2)C(=O)C(=O)N2CCCC[C@H]2C(=O)O[C@H]([C@H](C)C[C@@H]2CC[C@@H](O)[C@H](OC)C2)CC(=O)[C@H](C)/C=C(\C)[C@@H](OC(=O)C[n+]2cscc2C)[C@@H](OC)C(=O)[C@H](C)C[C@H](C)/C=C/C=C/C=C/1C.[Br-] [Example 3, 31-O-carbonylmethyl-(4-methyl-thiazole bromide salt-3-yl)-rapamycin]",< 0.046
